Source: US12264134B2 (Merck Sharp & Dohme LLC, priority 2018, dated 2025)

Biological target: IDO1 (Homo sapiens, UniProt P14902)
Experiment: IDO1 Cellular Assay in HeLa Cells Stimulated with IFNγ
Type: cell-based
Conditions: read-out: HeLa Cell Potency, IC50

Chain of IDO1 (P14902 whole entry): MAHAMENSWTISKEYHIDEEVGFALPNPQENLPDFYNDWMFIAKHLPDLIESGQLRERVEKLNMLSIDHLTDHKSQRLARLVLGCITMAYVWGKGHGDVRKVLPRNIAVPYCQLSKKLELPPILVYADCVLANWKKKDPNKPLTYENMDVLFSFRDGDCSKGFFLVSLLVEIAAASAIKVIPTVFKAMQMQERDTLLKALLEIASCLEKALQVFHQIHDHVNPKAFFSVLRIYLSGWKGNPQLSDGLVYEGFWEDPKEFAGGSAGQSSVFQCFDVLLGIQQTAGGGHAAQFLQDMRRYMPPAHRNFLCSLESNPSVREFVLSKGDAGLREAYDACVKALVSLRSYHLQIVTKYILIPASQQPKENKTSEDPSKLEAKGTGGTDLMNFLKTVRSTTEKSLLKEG

| Structure (SMILES) | IC50 |
| --- | --- |
| Cc1cccc(N2CCN(C(=O)Cn3nc(C(=O)N4CC[C@H](C(C)(C)O)C4)c4c3C[C@H]3C[C@@H]43)CC2)c1C [Example 262, 1-[4-(2,3-dimethylphenyl)piperazin-1-yl]-2-{(3bR,4aR)-3-[(3S)-3-(2-hydroxypropan-2-yl)pyrrolidine-1-carbonyl]-3b,4,4a,5-tetrahydro-1H-cyclopropa[3,4]cyclopenta[1,2-c]pyrazol-1-yl}ethan-1-one] | 0.00082 µM |
| Cc1cccc(N2CCN(C(=O)Cn3nc(C(=O)N4CCC(=O)N(C)CC4)c4c3CCC4)CC2)c1C [Example 84, 1-(1-{2-[4-(2,3-dimethylphenyl)piperazin-1-yl]-2-oxoethyl}-1,4,5,6-tetrahydrocyclopenta[c]pyrazole-3-carbonyl)-4-methyl-1,4-diazepan-5-one] | 0.0156 µM |
| Cc1cccc(N2CCN(C(=O)Cn3nc(C(=O)N4CCC(O)CC4)c4c3CC(F)(F)CC4)CC2)c1C [Example 21, 2-(6,6-difluoro-3-(4-hydroxypiperidine-1-carbonyl)-4,5,6,7-tetrahydro-1H-indazol-1-yl)-1-(4-(2,3-dimethylphenyl)piperazin-1-yl)ethanone] | 0.00513 µM |
| Cc1cccc(N2CCN(C(=O)Cn3nc(C(=O)N4CCCC5(CCNC5=O)C4)c4c3CCC4)CC2)c1C (centres unmarked) [Example 193, 7-(1-{2-[4-(2,3-dimethylphenyl)piperazin-1-yl]-2-oxoethyl}-1,4,5,6-tetrahydrocyclopenta[c]pyrazole-3-carbonyl)-2,7-diazaspiro[4.5]decan-1-one] | 0.075 µM |
| Cc1cccc(N2CCN(C(=O)Cn3nc(C(=O)N4CC5CCC(F)(F)C5C4)c4c3CCC4)CC2)c1C (centres unmarked) [Example 153, 2-[3-(4,4-difluorohexahydrocyclopenta[c]pyrrole-2(1H)-carbonyl)-5,6-dihydrocyclopenta[c]pyrazol-1(4H)-yl]-1-[4-(2,3-dimethylphenyl)piperazin-1-yl]ethan-1-one] | 0.00319 µM |
| Cc1cccc(N2CCN(C(=O)Cn3nc(C(=O)N4CC[C@H](F)[C@@H](O)C4)c4c3CCC4)CC2)c1C (racemic) [Example 208, 1-[4-(2,3-dimethylphenyl)piperazin-1-yl]-2-[3-[rac-(3S,4S)-4-fluoro-3-hydroxy-piperidine-1-carbony]-5,6-dihydro-4H-cyclopenta[c]pyrazol-1-yl]ethanone] | 0.0309 µM |
| Cc1cccc(N2CCN(C(=O)Cn3nc(C(=O)N4CCC5NCC5C4)c4c3C[C@H]3C[C@@H]43)CC2)c1C (stereo partly drawn) [Example 236, 2-[(3bR,4aR)-3-(3,7-diazaspiro[4.2.0]octane-3-carbonyl)-3b,4,4a,5-tetrahydro-1H-cyclopropa[3,4]cyclopenta[1,2-c]pyrazol-1-yl]-1-[4-(2,3-dimethylphenyl)piperazin-1-yl]ethan-1-one] | 0.055 µM |
| CC(=O)NC1CCN(C(=O)c2nn(CC(=O)N3CCN(c4cccc(C)c4C)CC3)c3c2CCC3)C1 (centres unmarked) [Example 194, N-[1-(1-{2-[4-(2,3-dimethylphenyl)piperazin-1-yl]-2-oxoethyl}-1,4,5,6-tetrahydrocyclopenta[c]pyrazole-3-carbonyl)pyrrolidin-3-yl]acetamide] | 0.04 µM |
| Cc1cc(C)c(N2CCN(C(=O)Cn3nc(C(=O)N4C[C@@H](C)O[C@@H](C)C4)c4c3CCC4)CC2)cc1C [Example 71, 2-{3-[(2R,6S)-2,6-dimethylmorpholine-4-carbonyl]-5,6-dihydrocyclopenta[c]pyrazol-1(4H)-yl}-1-[4-(2,4,5-trimethylphenyl)piperazin-1-yl]ethan-1-one] | 0.145 µM |
| Cc1cccc(N2CCN(C(=O)Cn3nc(C(=O)N4[C@@H](C)COC[C@@H]4C)c4c3CCC4)CC2)c1C [Example 115, 2-{3-[(3S,5S)-3,5-dimethylmorpholine-4-carbonyl]-5,6-dihydrocyclopenta[c]pyrazol-1(4H)-yl}-1-[4-(2,3-dimethylphenyl)piperazin-1-yl]ethan-1-one] | 0.176 µM |
| C[C@@H]1CN(C(=O)c2nn(CC(=O)N3CCN(c4cccc5c4CCCC5)CC3)c3c2CCC3)C[C@H](C)O1 [Example 52, 2-{3-[(2R,6S)-2,6-dimethylmorpholine-4-carbonyl]-5,6-dihydrocyclopenta[c]pyrazol-1(4H)-yl}-1-[4-(5,6,7,8-tetrahydronaphthalen-1-yl)piperazin-1-yl]ethan-1-one] | 0.0104 µM |
| Cc1cc(F)cc(N2CCN(C(=O)Cn3nc(C(=O)N4C[C@@H](C)O[C@@H](C)C4)c4c3CCC4)CC2)c1 [Example 41, 2-{3-[(2R,6S)-2,6-dimethylmorpholine-4-carbonyl]-5,6-dihydrocyclopenta[c]pyrazol-1(4H)-yl}-1-[4-(3-fluoro-5-methylphenyl)piperazin-1-yl]ethan-1-one] | 0.243 µM |
| Cc1ccc(N2CCN(C(=O)Cn3nc(C(=O)N4C[C@@H](C)O[C@@H](C)C4)c4c3CCC4)CC2)c(F)c1 [Example 56, 2-{3-[(2R,6S)-2,6-dimethylmorpholine-4-carbonyl]-5,6-dihydrocyclopenta[c]pyrazol-1(4H)-yl}-1-[4-(2-fluoro-4-methylphenyl)piperazin-1-yl]ethan-1-one] | 0.126 µM |
| Cc1cc(N2CCN(C(=O)Cn3nc(C(=O)N4C[C@@H](C)O[C@@H](C)C4)c4c3CCC4)CC2)cc(C)c1Cl [Example 40, 1-[4-(4-chloro-3,5-dimethylphenyl)piperazin-1-yl]-2-{3-[(2R,6S)-2,6-dimethylmorpholine-4-carbonyl]-5,6-dihydrocyclopenta[c]pyrazol-1(4H)-yl}ethan-1-one] | 0.223 µM |

Next, values leading:

| IC50 | Structure (SMILES) |
| --- | --- |
| 0.00289 µM | CC(=O)NC1CCN(C(=O)c2nn(CC(=O)N3CCN(c4cccc(Cl)c4C)CC3)c3c2CC(F)CC3)CC1 (centres unmarked) [Example 367, N-(1-(1-(2-(4-(3-chloro-2-methylphenyl)piperazin-1-yl)-2-oxoethyl)-5-fluoro-4,5,6,7-tetrahydro-1H-indazole-3-carbonyl)piperidin-4-yl)acetamide] |
| 0.00543 µM | Cc1cccc(N2CCN(C(=O)Cn3nc(C(=O)N4CC[C@H](O)[C@H](F)C4)c4c3CCCCC4)CC2)c1C [Example 412, 1-(4-(2,3-dimethylphenyl)piperazin-1-yl)-2-(3-((3R,4S)-3-fluoro-4-hydroxypiperidine-1-carbonyl)-5,6,7,8-tetrahydrocyclohepta[c]pyrazol-1(4H)-yl)ethanone] |
| > 10 µM | O=C(Cn1nc(C(=O)N2CC[C@H](O)[C@H](F)C2)c2c1CCC2)N1CCN(C2CCCc3ccccc32)CC1 (single isomer, unassigned) [Example 427] |
| 0.0127 µM | Cc1cccc(N2CCN(C(=O)Cn3nc(C(=O)N4C[C@@H](C)O[C@@H](C)C4)c4c3CCC4)CC23CC3)c1C [Example 447, 2-(3-((2R,6S)-2,6-dimethylmorpholine-4-carbonyl)-5,6-dihydrocyclopenta[c]pyrazol-1(4H)-yl)-1-(4-(2,3-dimethylphenyl)-4,7-diazaspiro[2.5]octan-7-yl)ethanone] |
| 0.00147 µM | Cc1cccc(N2CCN(C(=O)Cn3nc(C(=O)N4CC[C@H](O)[C@H](F)C4)c4c3C[C@H]3C[C@@H]43)C3(CC3)C2)c1C [Example 364, 1-(7-(2,3-dimethylphenyl)-4,7-diazaspiro[2.5]octan-4-yl)-2-((3bR,4aR)-3-((3R,4S)-3-fluoro-4-hydroxypiperidine-1-carbonyl)-3b,4,4a,5-tetrahydro-1H-cyclopropa[3,4]cyclopenta[1,2-c]pyrazol-1-yl)ethanone] |
| 0.0157 µM | Cc1c(Cl)cccc1N1CCN(C(=O)Cn2nc(C(=O)N3CCN(C(=O)CO)CC3)c3c2CCC(F)C3)CC1 (centres unmarked) [Example 371, 1-(4-(3-chloro-2-methylphenyl)piperazin-1-yl)-2-(5-fluoro-3-(4-(2-hydroxyacetyl)piperazine-1-carbonyl)-4,5,6,7-tetrahydro-1H-indazol-1-yl)ethan-1-one] |
| 0.00174 µM | Cc1c(Cl)cccc1N1CCN(C(=O)Cn2nc(C(=O)N3CCC(OCCO)CC3)c3c2C[C@H]2C[C@@H]32)C2(CC2)C1 [Example 312, 1-(7-(3-chloro-2-methylphenyl)-4,7-diazaspiro[2.5]octan-4-yl)-2-((3bR,4aR)-3-(4-(2-hydroxyethoxy)piperidine-1-carbonyl)-3b,4,4a,5-tetrahydro-1H-cyclopropa[3,4]cyclopenta[1,2-c]pyrazol-1-yl)ethan-1-one] |
| 0.00273 µM | Cc1c(C(F)F)cccc1N1CCN(C(=O)Cn2nc(C(=O)N3CC[C@@H](O)[C@@H](F)C3)c3c2C[C@H]2C[C@@H]32)CC1 [Example 347, 1-(4-(3-(difluoromethyl)-2-methylphenyl)piperazin-1-yl)-2-((3bR,4aR)-3-((3S,4R)-3-fluoro-4-hydroxypiperidine-1-carbonyl)-3b,4,4a,5-tetrahydro-1H-cyclopropa[3,4]cyclopenta[1,2-c]pyrazol-1-yl)ethanone] |
| 0.00652 µM | Cc1c(C(F)F)cccc1N1CCN(C(=O)Cn2nc(C(=O)N3CCN(C(=O)CO)CC3)c3c2C[C@H]2C[C@@H]32)CC1 [Example 344, 1-(4-(3-(difluoromethyl)-2-methylphenyl)piperazin-1-yl)-2-((3bR,4aR)-3-(4-(2-hydroxyacetyl)piperazine-1-carbonyl)-3b,4,4a,5-tetrahydro-1H-cyclopropa[3,4]cyclopenta[1,2-c]pyrazol-1-yl)ethanone] |
| 0.00073 µM | CC(=O)NC1CCN(C(=O)c2nn(CC(=O)N3CCN(c4cccc(C)c4C)CC34CC4)c3c2[C@@H]2C[C@@H]2C3)CC1 [Example 356, N-(1-((3bR,4aR)-1-(2-(7-(2,3-dimethylphenyl)-4,7-diazaspiro[2.5]octan-4-yl)-2-oxoethyl)-3b,4,4a,5-tetrahydro-1H-cyclopropa[3,4]cyclopenta[1,2-c]pyrazole-3-carbonyl)piperidin-4-yl)acetamide] |
| 0.0386 µM | Cc1cccc(N2CCN(C(=O)Cn3nc(C(=O)N4CCS(=N)(=O)CC4)c4c3C[C@H]3C[C@@H]43)CC2)c1C [Example 269, 4-[(3bR,4aR)-1-{2-[4-(2,3-dimethylphenyl)piperazin-1-yl]-2-oxoethyl}-3b,4,4a,5-tetrahydro-1H-cyclopropa[3,4]cyclopenta[1,2-c]pyrazole-3-carbonyl]-1-imino-1lambda~6~,4-thiazinan-1-one] |
| 0.0857 µM | C[C@@H]1CN(C(=O)c2nn(CC(=O)N3CCN(C4CCCc5ccccc54)CC3)c3c2CCC3)C[C@H](C)O1 (stereo partly drawn) [Example 428, 2-(3-((2S,6R)-2,6-dimethylmorpholine-4-carbonyl)-5,6-dihydrocyclopenta[c]pyrazol-1(4H)-yl)-1-(4-(1,2,3,4-tetrahydronaphthalen-1-yl)piperazin-1-yl)ethanone] |
